Where a SMILES comes first, the peptide text is derived from it. The star is where a group is joined. Cbz = O=C(OCc1ccccc1)*
Tested on: TDII FGFR3
Assay: Proteasome inhibition in cells expressing TDII FGFR3 (immunoblot)
Type: cell-based, mouse
Settings: 17-AAG-induced decrease, FIG. 11
Text: The two FGFR3 bands reflect glycosylation differences.

Structure (SMILES): CC(C)C[C@@H](C=O)NC(=O)[C@H](CC(C)C)NC(=O)[C@H](CC(C)C)NC(=O)OCc1ccccc1 [MG132] (Cbz-Leu-Leu-Leu-aldehyde)
- TDII FGFR3 degradation: decreased TDII FGFR3 degradation

— patent US8426396B2, “Treatment for achondroplasia” (Shriners Hospitals for Children, priority 2008, dated 2013)
